# What was measured:
# [1] = system: Aspergillus spp.; assay: Antifungal agent sensitivity test, MIC by trace liquid dilution method (yeast-like fungi FP 'Eiken'); format: cell-based; conditions: numeric MIC (μg/mL) only in FIG. 2
# Experimental: (§1) Minimum inhibitory concentration (MIC) was measured by the trace liquid dilution method. The measurement was performed using yeast-like fungi FP ‘Eiken’ (Eiken Chemical Co., Ltd.) and according to the manual of the product.
# [2] = system: Candida spp.; assay: as above; format: cell-based; conditions: numeric MIC (μg/mL) only in FIG. 2
# Experimental: as §1
structure (smiles),measurement,setting,value
CC=C(Cc1ccccc1)C12CC(O)CCN1O2 (centres unmarked),"antifungal activity (MIC), result in words",[1],good activity
same,"antifungal activity (MIC), result in words",[2],good activity
